Reference: patent US11865104B2, “Antitumor TET2 modulating compounds” (THE CLEVELAND CLINIC FOUNDATION, priority 2017, dated 2024)
Entries after “also recorded” stand apart in the source; their conditions may differ.

Key:
[1] = test system: MOLM and K562 TET2 knockdown cells; assay: Culture of TET2 knockdown cell lines; format: cell-based; conditions: preliminary experiments
K562 TET2^KO cells = assay: Colony forming assay in TET2 knock-out K562 cells; format: cell-based, human; conditions: K562 TET2^KO vs K562
Text: (§1) FIGS. 3A-3G provide graphs showing the In-vitro efficacy of TETi in the elimination of TET2MTcells. A. Leukemia cell lines express different level of TET2. B. Ratio of TET2 expression vs. Lamin C. The dose response curves of cell survival with different concentration of TETi76 D. LD50 plotted against the relative expression of TET2 and C. E. Colony forming abilities of K562 TET2^+/+ and TET2^−/− cells in the presence and absence of TETi76. Data is representative of 3 independent experiment performed separately. F. Colony forming abilities of two independent normal bone marrow cells (NBM) and SIGM5 cells in MethoCult in the presence and absence of TETi76. Data is the summary of three independent experiments performed separately. G. Bone marrow from Tet2^+/+, Tet2^+/− and Tet2^−/− mice were harvested and cultured in MethoCult in the presence or absence of TETi76.
(§2) Efficacy and specificity of TETi. We used established tet2^+/− vs. tet2^−/− mouse models as well as several human myeloid cell lines selected to harbor TET2^MT or to express low level of TET2 to determine the specificity, establish the read out and provide proof of concept for the proposed strategy. […] The IC50 of different cells against TETi76 is inversely correlated with TET-activity (FIG. 3).

HEL01 = assay: Growth suppression / cell survival dose response in leukemia cell lines; format: cell-based, human; conditions: HEL01, high TET2 expressing
Text: as §1, §2

K562 = assay: as above; format: cell-based, human; conditions: K562, high TET2 expressing
Text: as §1, §2

tet2^MT clones = assay: In vivo mixed bone marrow transplant, CD45.2 vs CD45.1 ratio; parameters: species or system mice; conditions: 80 mg/kg 5 days/week, irradiated CD45.1 recipients transplanted with mixed marrow
Method: FIGS. 4A-4E provide graphs and images showing the In-vivo efficacy of TETi in the elimination of cells with TET2^MT. […] Tet^mt bone marrow cells were mixed in the ratio of 1:2 with tet2^+/+ bone marrow cells isolated from Pep (CD45.1). The mixed bone marrow cells were treated either with DMSO or with TETi76 in MethoCult™. Cells were isolated and ratio of CD45.1 (Pep, tet2^+/+) and CD45.2 (tet2mt) was determined by flow using antibodies against CD45.1 and CD45.2. B. Tet2^+/− bone marrow cells were mixed in the ratio of 1:2 with Tet2^+/+ in MethoCult with the treatment of DMSO or TETi76. Ratio of Tet2^+/− vs Tet2^+/+ was measured by flow. C. […] Ratio of Tet2^+/− vs Tet2^+/+ was measured by flow. […] CD45.1+ vs. CD45.2+ was serially assessed.
To further validate the feasibility of our proposed strategy as a therapeutic principle, we used mixing experiments in which tet2^MT/tet2^WT were co-cultured at fixed ratios to mimic evolving tet2MT clone and the differences in isoform fractions served as read out. […] As expected, tet2^MT grew at faster rate in the controls as reflected in the increased ratio >1:1 of tet2^MT/tet2^WT, while TETi treatment selectively eliminated the tet2^MT cells as determined using CD45.1/CD45.2 surface markers on tet2^WT and tet2^MT bone marrow, respectively (FIGS. 4A&B). […] First we determined MTD utilizing a dose escalation in a group of 3 mice each. […]

SIGM5 = assay: Growth suppression / cell survival dose response in leukemia cell lines; format: cell-based; conditions: Homo sapiens, SIG-M5; SIGM5, least TET2 expression
Text: as §1, §2

MOLM13 = assay: as above; format: cell-based; conditions: Homo sapiens, MOLM-13; MOLM13, least TET2 expression
Text: as §1, §2

[2] = MTD by dose escalation in mice; conditions: mouse, in vivo
Method: To further validate the feasibility of our proposed strategy as a therapeutic principle, we used mixing experiments in which tet2^MT/tet2^WT were co-cultured at fixed ratios to mimic evolving tet2MT clone and the differences in isoform fractions served as read out. In long-term culture of normal marrow from B6Cd45.1 Pep Boy vs. B6CD45.2 mice of tet2^+/− and tet2^−/− genetic background. Marrow cell from 3 mice/group were cultured in 1:2 ratio of tet2^MT/tet2^WT with/without TETi. Over the period of culture TETi effectively eliminated otherwise dominating tet2^+/− cells (FIG. 4). As expected, tet2^MT grew at faster rate in the controls as reflected in the increased ratio >1:1 of tet2^MT/tet2^WT, while TETi treatment selectively eliminated the tet2^MT cells as determined using CD45.1/CD45.2 surface markers on tet2^WT and tet2^MT bone marrow, respectively (FIGS. 4A&B). […] In vivo efficacy of TETi. […] First we determined MTD utilizing a dose escalation in a group of 3 mice each. […] The MTD was determined at 168 mg/kg. […] Once mice were fully recovered as determined by their weight, the ratio of tet2^MT and tet2^WT marrow was confirmed by CD45.1/CD45.2 cytometry prior to treatment. […] Ratio of CD45.2 vs. CD45.1 was determined at different time points (FIGS. 4D&E). […]

Gulo^−/−Tet2^+/− cells = assay: hmC level in Gulo^−/−Tet2^+/− cells; format: cell-based
Text: We optimized assays to assess the impact of mutation or haploinsufficiency on dioxygenase activity in our laboratory. We deployed 2 independent methods for the quantification of hmC/mC. First, a semi quantitative method of dot blot and second a highly sensitive 2D-UPLCMS method. These methods were used to determine the relative activity of TET2 enzymatic function. We can quantify TET2 dioxygenase activity products in cell lines and patient's bone marrow cells with various types of TET2^MT (FIG. 3E) in genetically modified (retrovirally-transduced TET2 shRNA) K562 and MOLM13 cells and bone marrow from Tet2^−/− and Tet^+/− mice. As expected, haploinsufficiency of TET2 leads to gene-dose dependent decreases in 5hmC and further oxidized products.

SMILES	inhibitory effects compared to cells with scrambled shRNA [1]	colony forming, effect of TET2 knock-out on sensitivity (K562 TET2^KO cells)	sensitivity to treatment (HEL01)	sensitivity to treatment (K562)	growth of tet2^MT clones in vivo (ratio CD45.2 vs CD45.1) (tet2^MT clones)	IC50 (SIGM5) [µM]	IC50 (MOLM13) [µM]	mortality at MTD [2]	MTD at 3 months ([2]; dose escalation, groups of 3 mice, 5 days a week, weekly dose increments) [mg/kg]	levels of TET2 product hmC (Gulo^−/−Tet2^+/− cells)
COC(=O)CCC(=O)C(=O)OC [DMKG]	differential and dose-dependent inhibitory effects									
C=C(CC(O)C(=O)OCC)C(=O)OCC (centres unmarked) [TETi76]		sensitized these cells to TETi76	lowest sensitivity	lowest sensitivity	most pronounced against tet2^−/− compared to tet2^+/− genotype; also recorded: prevents clonal expansion Tet2MT cells in vivo	11.2	9.6	no mortality	168	
O=C1O[C@H]([C@@H](O)CO)C(O)=C1O [vitC, vitamin C]	differential and dose-dependent inhibitory effects									increases levels of the TET2 product hmC
